# According to US20220306647A1, “NOVEL INDOLE-2-CARBOXAMIDES ACTIVE AGAINST THE HEPATITUS B VIRUS (HBV)” (AICURIS GMBH & CO. KG, priority 2019, published 2022):
# Target: T1, HBV core protein (C-terminal truncated core protein, 149 amino acids of the N-terminal assembly domain, BODIPY-FL labelled) (UniProt P03146)
# T1 construct: fused on or other part: A single cysteine added after residue 149, at position 150; It carries the BODIPY-FL maleimide label
# Experiment: Biochemical capsid assembly assay (fluorescence quenching)
# Conditions: assembly started with NaCl, fluorescence read after 6 min, read-out: Assembly activity
# Procedure: The screening for assembly effector activity was done based on a fluorescence quenching assay published by Zlotnick et al. (2007). The C-terminal truncated core protein containing 149 amino acids of the N-terminal assembly domain fused to a unique cysteine residue at position 150 and was expressed in E. coli using the pET expression system (Merck Chemicals, Darmstadt). Purification of core dimer protein was performed using a sequence of size exclusion chromatography steps. In brief, the cell pellet from 1 L BL21 (DE3) Rosetta2 culture expressing the coding sequence of core protein cloned NdeI/XhoI into expression plasmid pET21b was treated for 1 h on ice with a native lysis buffer (Qproteome Bacterial Protein Prep Kit; Qiagen, Hilden). After a centrifugation step the supernatant was precipitated during 2 h stirring on ice with 0.23 g/ml of solid ammonium sulfate. Following further centrifugation the resulting pellet was resolved in buffer A (100 mM Tris, pH 7.5; 100 mM NaCl; 2 mM DTT) and was subsequently loaded onto a buffer A equilibrated CaptoCore 700 column (GE HealthCare, Frankfurt). The column flow through containing the assembled HBV capsid was dialyzed against buffer N (50 mM NaHCO3 pH 9.6; 5 mM DTT) before urea was added to a final concentration of 3M to dissociate the capsid into core dimers for 1.5 h on ice. The protein solution was then loaded onto a 1L Sephacryl S300 column. After elution with buffer N core dimer containing fractions were identified by SDS-PAGE and subsequently pooled and dialyzed against 50 mM HEPES pH 7.5; 5 mM DTT. To improve the assembly capacity of the purified core dimers a second round of assembly and disassembly starting with the addition of 5 M NaCl and including the size exclusion chromatography steps described above was performed. From the last chromatography step core dimer containing fractions were pooled and stored in aliquots at concentrations between 1.5 to 2.0 mg/ml at −80° C.
# Immediately before labelling the core protein was reduced by adding freshly prepared DTT in a final concentration of 20 mM. After 40 min incubation on ice storage buffer and DTT was removed using a Sephadex G-25 column (GE HealthCare, Frankfurt) and 50 mM HEPES, pH 7.5. For labelling 1.6 mg/ml core protein was incubated at 4° C. and darkness overnight with BODIPY-FL maleimide (Invitrogen, Karlsruhe) in a final concentration of 1 mM. After labelling the free dye was removed by an additional desalting step using a Sephadex G-25 column. Labelled core dimers were stored in aliquots at 4° C. In the dimeric state the fluorescence signal of the labelled core protein is high and is quenched during the assembly of the core dimers to high molecular capsid structures. The screening assay was performed in black 384 well microtiter plates in a total assay volume of 10 μl using 50 mM HEPES pH 7.5 and 1.0 to 2.0 μM labelled core protein. Each screening compound was added in 8 different concentrations using a 0.5 log-unit serial dilution starting at a final concentration of 100 μM, 31.6 μM or 10 μM, In any case the DMSO concentration over the entire microtiter plate was 0.5%. The assembly reaction was started by the injection of NaCl to a final concentration of […] which induces the assembly process to approximately 25% of the maximal quenched signal. 6 min after starting the reaction the fluorescence signal was measured using a Clariostar plate reader (BMG Labtech, Ortenberg) with an excitation of 477 nm and an emission of 525 nm. As 100% and 0% assembly control HEPES buffer containing 2.5 M and 0 M NaCl was used. Experiments were performed thrice in triplicates. EC50 values were calculated by non-linear regression analysis using the Graph Pad Prism 6 software (GraphPad Software, La Jolla, USA).
# T1 sequence (P03146 whole entry, the tested form may be a part): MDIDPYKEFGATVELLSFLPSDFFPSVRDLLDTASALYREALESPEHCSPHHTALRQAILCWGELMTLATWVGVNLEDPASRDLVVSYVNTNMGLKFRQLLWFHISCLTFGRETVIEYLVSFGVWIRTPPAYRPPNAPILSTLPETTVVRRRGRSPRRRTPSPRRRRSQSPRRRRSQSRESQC
row,SMILES,IC50 [µM]
1,"O=C(c1cc2c(F)c(F)ccc2[nH]1)N1CCc2nn3c(c2C1)C(=O)N(CCO)C1(CC3)CC1 [Example 120, 4′-(4,5-difluoro-1H-indole-2-carbonyl)-13′-(2-hydroxyethyl)-4′, 8′,9′,13′-tetraazaspiro[cyclopropane-1,12′-tricyclo[7.5.0.0^2,7]tetradecane]-1′,7′-dien-14′-one]",< 5
2,"O=C(c1cc2cc(F)c(F)cc2[nH]1)N1CCc2nn3c(c2C1)C(=O)N(CCO)C1(CC3)CC1 [Example 121, 4′-(5,6-difluoro-1H-indole-2-carbonyl)-13′-(2-hydroxyethyl)-4′, 8′,9′,13′-tetraazaspiro[cyclopropane-1,12′-tricyclo[7.5.0.0^2,7]tetradecane]-1′,7′-dien-14′-one]",< 5
3,"O=C(c1cc2cc(F)c(Cl)cc2[nH]1)N1CCc2nn3c(c2C1)C(=O)N(CCO)C1(CC3)CC1 [Example 122, 4′-(6-chloro-5-fluoro-1H-indole-2-carbonyl)-13′-(2-hydroxyethyl)-4′,8′,9′,13′-tetraazaspiro[cyclopropane-1,12′-tricyclo[7.5.0.0^2,7]tetradecane]-1′,7′-dien-14′-one]",< 5
4,"COCCN1C(=O)c2c3c(nn2CCC12CC2)CCN(C(=O)c1cc2ccccc2[nH]1)C3 [Example 123, 4′-(1H-indole-2-carbonyl)-13′-(2-methoxyethyl)-4′, 8′,9′,13′-tetraazaspiro[cyclopropane-1,12′-tricyclo[7.5.0.0^2,7]tetradecane]-1′,7′-dien-14′-one]",< 5
5,"CN(C)CCN1C(=O)c2c3c(nn2CCC12CC2)CCN(C(=O)c1cc2ccccc2[nH]1)C3 [Example 124, 13′-[2-(dimethylamino)ethyl]-4′-(1H-indole-2-carbonyl)-4′,8′,9′,13′-tetraazaspiro[cyclopropane-1,12′-tricyclo[7.5.0.0^2,7]tetradecane]-1′,7′-dien-14′-one]",5 to 10
6,"CN1CCN(CCN2C(=O)c3c4c(nn3CCC23CC3)CCN(C(=O)c2cc3ccccc3[nH]2)C4)CC1 [Example 125, 4′-(1H-indole-2-carbonyl)-13′-[2-(4-methylpiperazin-1-yl)ethyl]-4′,8′,9′,13′-tetraazaspiro[cyclopropane-1,12′-tricyclo[7.5.0.0^2,7]tetradecane]-1′,7′-dien-14′-one]",< 5
7,"O=C(NC1(COC(F)F)CC1)c1onc2c1CN(C(=O)c1cc3ccccc3[nH]1)CC2 [Example 132, N-{1-[(difluoromethoxy)methyl]cyclopropyl}-5-(1H-indole-2-carbonyl)-4H,5H,6H,7H-[1,2]oxazolo[4,3-c]pyridine-3-carboxamide]",< 5
8,"O=C(NC1(COC(F)F)CC1)c1onc2c1CN(C(=O)c1cc3c(Cl)cccc3[nH]1)CC2 [Example 133, 5-(4-chloro-1H-indole-2-carbonyl)-N-{1-[(difluoromethoxy)methyl]cyclopropyl}-4H,5H,6H,7H-[1,2]oxazolo[4,3-c]pyridine-3-carboxamide]",< 5
9,"O=C(c1cc2ccccc2[nH]1)N1CCc2nn3c(c2C1)C(=O)N(CCN1CCOCC1)C1(CC3)CC1 [Example 134, 4′-(1H-indole-2-carbonyl)-13′-[2-(morpholin-4-yl)ethyl]-4′,8′,9′,13′-tetraazaspiro[cyclopropane-1,12′-tricyclo[7.5.0.0^2,7]tetradecane]-1′,7′-dien-14′-one]",< 5
10,"CN(C(=O)c1n[nH]c2c1CN(C(=O)c1cc3cc(F)c(Cl)cc3[nH]1)CC2)C1(c2ncc(C(=O)O)cn2)CC1 [Example 136, 2-{1-[N-methyl-5-(6-chloro-5-fluoro-1H-indole-2-carbonyl)-2H,4H,5H,6H,7H-pyrazolo[4,3-c]pyridine-3-amido]cyclopropyl}pyrimidine-5-carboxylic acid]",< 5
11,"O=C(O)c1ccc(C2(NC(=O)c3cnn4c3CN(C(=O)c3cc5ccccc5[nH]3)CC4)CC2)cc1 [Example 137, 4-{1-[5-(1H-indole-2-carbonyl)-4H,5H,6H,7H-pyrazolo[1,5-a]pyrazine-3-amido]cyclopropyl}benzoic acid]",< 5
12,"C[C@@H](NC(=O)c1ncn2c1CN(C(=O)c1cc3ccccc3[nH]1)CC2)C(F)(F)F [Example 138, 7-(1H-indole-2-carbonyl)-N-[(2R)-1,1,1-trifluoropropan-2-yl]-5H,6H,7H,8H-imidazo[1,5-a]pyrazine-1-carboxamide]",< 5
13,"CN1CCCn2nc3c(c2C1=O)CN(C(=O)c1cc2ccccc2[nH]1)CC3 [Example 139, 4-(1H-indole-2-carbonyl)-13-methyl-4,8,9,13-tetraazatricyclo[7.5.0.0^2,7]tetradeca-1,7-dien-14-one]",< 5
14,"O=C(c1cc2ccccc2[nH]1)N1CCc2nn3c(c2C1)C(=O)N(CCO)C1(CC1)C3 [Example 140, 4′-(2-hydroxyethyl)-12′-(1H-indole-2-carbonyl)-4′,7′,8′,12′-tetraazaspiro[cyclopropane-1,5′-tricyclo[7.4.0.0^2,7]tridecane]-1′,8′-dien-3′-one]",< 5
15,"O=C(NC1(COC(F)F)CC1)c1onc2c1CN(C(=O)c1cc3cc(F)c(F)cc3[nH]1)CC2 [Example 141, 5-(5,6-difluoro-1H-indole-2-carbonyl)-N-{1-[(difluoromethoxy)methyl]cyclopropyl}-4H,5H,6H,7H-[1,2]oxazolo[4,3-c]pyridine-3-carboxamide]",< 5
16,"O=C(NC1(COC(F)F)CC1)c1onc2c1CN(C(=O)c1cc3c(F)c(F)ccc3[nH]1)CC2 [Example 143, 5-(4,5-difluoro-1H-indole-2-carbonyl)-N-{1-[(difluoromethoxy)methyl]cyclopropyl}-4H,5H,6H,7H-[1,2]oxazolo[4,3-c]pyridine-3-carboxamide]",< 5
17,"O=C(NC1(COC(F)F)CC1)c1onc2c1CN(C(=O)c1cc3cc(F)c(Cl)cc3[nH]1)CC2 [Example 144, 5-(6-chloro-5-fluoro-1H-indole-2-carbonyl)-N-{1-[(difluoromethoxy)methyl]cyclopropyl}-4H,5H,6H,7H-[1,2]oxazolo[4,3-c]pyridine-3-carboxamide]",< 5
18,"CC1CCn2nc3c(c2C(=O)N1C)CN(C(=O)c1cc2ccccc2[nH]1)CC3 (stereo not shown) [Example 145, 4-(1H-indole-2-carbonyl)-12,13-dimethyl-4,8,9,13-tetraazatricyclo[7.5.0.0^2,7]tetradeca-1,7-dien-14-one]",< 5
19,"O=C(c1cc2ccccc2[nH]1)N1CCc2nn3c(c2C1)C(=O)N(CCOC(F)(F)F)C1(CC3)CC1 [Example 146, 4′-(1H-indole-2-carbonyl)-13′-[2-(trifluoromethoxy)ethyl]-4′,8′,9′,13′-tetraazaspiro[cyclopropane-1,12′-tricyclo[7.5.0.0^2,7]tetradecane]-1′,7′-dien-14′-one]",< 5
20,"O=C(c1cc2ccccc2[nH]1)N1CCc2nn3c(c2C1)C(=O)N(CC(F)F)C1(CC3)CC1 [Example 147, 13′-(2,2-difluoroethyl)-4′-(1H-indole-2-carbonyl)-4′,8′,9′,13′-tetraazaspiro[cyclopropane-1,12′-tricyclo[7.5.0.0^2,7]tetradecane]-1′,7′-dien-14′-one]",< 5
21,"O=C(c1cc2ccccc2[nH]1)N1CCc2nn3c(c2C1)C(=O)N(CC(F)(F)F)C1(CC3)CC1 [Example 148, 4′-(1H-indole-2-carbonyl)-13′-(2,2,2-trifluoroethyl)-4′,8′,9′,13′-tetraazaspiro[cyclopropane-1,12′-tricyclo[7.5.0.0^2,7]tetradecane]-1′,7′-dien-14′-one]",< 5
22,"COC(=O)CN1C(=O)c2c3c(nn2CCC12CC2)CCN(C(=O)c1cc2ccccc2[nH]1)C3 [Example 149, methyl 2-[4′-(1H-indole-2-carbonyl)-14′-oxo-4′, 8′,9′,13′-tetraazaspiro[cyclopropane-1,12′-tricyclo[7.5.0.0^2,7]tetradecane]-1′,7′-dien-13′-yl]acetate]",< 5
